Each structure is given as a SMILES string. Like-named read-outs stand apart in the source and are kept apart here.

Data on four compounds can be found in article PMC4489529 (Antiviral chemistry & chemotherapy, 2014).

For data set [1] the following is noted: buffer.
Data set [2] has as its system Caco-2 cells.
In another data set the test system is U373-MAGI-CXCR4CEM cells. The settings on record: at 5 μM, data not shown.
A further data set is described as follows: in vitro. The settings on record: human, Caco-2, pH 7.4.
The conditions of data set [3]: pH 7.4, reported for the parent compound; cited from earlier work.
For data set [4], the system named is Caco-2 cells. Briefly: Caco-2 assay to assess permeability. The note with it: divalerate prodrug versus parent drug. For orientation: Caco-2 cells form a polarised layer with tight junctions and transporters.

In the case of `CCCCC(=O)OC[C@H]1O[C@@H](n2cnc(N)nc2=O)C[C@@H]1OC(=O)CCCC` [Decitabine divalerate, decitabine divalerate], in data set [1], the “Half-life at pH 2.0” value was found to be 17 h, the “Half-life at pH 4.65” value is listed as 36 h and the “Half-life at pH 7.4” value is 28 h. In addition, in the data set with Caco-2 cells [2] (Caco-2), the Permeability is 3.2e-06 cm/s and the “Permeability of prodrug relative to parent compound” value is recorded as “fourfold higher”. In the data set on Caco-2 cells [2] (Caco-2, pH 7.4), the Permeability was 3.2 10^−6 cm/s. Besides, the “Decrease in cell proliferation” value in the data set on U373-MAGI-CXCR4CEM cells was “less than 5%”.

As to `Nc1ncn([C@H]2C[C@H](O)[C@@H](CO)O2)c(=O)n1` [Decitabine, 5-aza-2′-deoxycytidine], the recovery at 60 min, 10 μM in “in vitro” amounted to 91%. Also, the “Half-life at pH 7.4” value in data set [3] was 12.9 ±0.9 h.

As to `CCCCC(=O)OC[C@H]1O[C@@H](n2ccc(N)nc2=O)C(F)(F)[C@@H]1OC(=O)CCCC` [Gemcitabine divalerate, gemcitabine divalerate], in data set [1], the “Half-life at pH 2.0” value was determined as 85 h, the “Half-life at pH 4.65” value came out at 247 h and the “Half-life at pH 7.4” value is on record as 135 h. In the data set with Caco-2 cells [2] (Caco-2), this compound gave a Permeability of 2.1e-06 cm/s. In addition, in the data set on Caco-2 cells [2] (Caco-2, pH 7.4), the Permeability is listed as 2.1 10^−6 cm/s. Moreover, in the data set on Caco-2 cells [4], the “Permeability of prodrug relative to parent compound” value is 4.2 fold.

For `Nc1ccn([C@@H]2O[C@H](CO)[C@@H](O)C2(F)F)c(=O)n1` [Gemcitabine, 2′,2′-difluoro-2′-deoxycytidine], the recovery at 60 min, 10 μM in the data set “in vitro” came out at 111%.
